According to ChEMBL document CHEMBL2034917, “Multifunctional mercapto-tacrine derivatives for treatment of age-related neurodegenerative diseases” (J Med Chem, 2012):
Activity calls are given as the source filed them. The calls are words filed in the database; no cut-off is given here.

Legend:
SH-SY5Y [1] = experiment: Neuroprotective activity in human SH-SY5Y cells assessed as protection against H2O2-induced oxidative stress at 30 uM incubated for 1 hr prior to H2O2-challenge measured after 12 hrs by MTT assay; format: functional
SH-SY5Y [2] = experiment: Neuroprotective activity in human SH-SY5Y cells assessed as protection against H2O2-induced oxidative stress at 10 uM incubated for 1 hr prior to H2O2-challenge measured after 12 hrs by MTT assay; format: functional
Acetylcholinesterase = Acetylcholinesterase (Electrophorus electricus, UniProt O42275); experiment: Inhibition of electric eel acetylcholine esterase using […] as substrate incubated for 5 mins prior to substrate addition measured every 3 mins by Ellman's assay
SH-SY5Y [3] = experiment: Neuroprotective activity in human SH-SY5Y cells assessed as protection against H2O2-induced oxidative stress at 1 uM incubated for 1 hr prior to H2O2-challenge measured after 12 hrs by MTT assay; format: functional
Cholinesterase = Cholinesterase (Equus caballus, UniProt P81908)
Description: Inhibition of equine serum butyrylcholine esterase using butyrylcholine chloride as substrate incubated for 5 mins prior to substrate addition measured every 3 mins by Ellman's assay

Rattus norvegicus [4] = experiment: Hepatotoxicity in Sprague-Dawley rat assessed increase in alanine aminotransferase level in serum at 6 umol/100g of body weight, ip up to 120 hrs; format: toxicity, organism-based; details: in vivo
Rattus norvegicus [5] = experiment: Hepatotoxicity in Sprague-Dawley rat assessed increase in aminotransferase level in serum at 6 umol/100g of body weight, ip up to 120 hrs; format: toxicity, organism-based; details: in vivo
SH-SY5Y [6] = experiment: Neuroprotective activity in human SH-SY5Y cells assessed as protection against H2O2-induced oxidative stress at 3 uM incubated for 1 hr prior to H2O2-challenge measured after 12 hrs by MTT assay; format: functional
Hippocampus [7] = experiment: (§1) Neuroprotective activity in Sprague-Dawley rat hippocampal CA1 region assessed as enhancement of high frequency stimulation-induced long-term potentiation by measuring field excitatory postsynaptic potentials at 50 uM incubated for 5 mins prior to HFS-induction measured after 10 mins by electrophysiology assay (reference value: 133.7 +/- 3.6%); format: functional
Hippocampus [8] = experiment: as §1, with “potentials” for “potentials at 50 uM”, “136.3” for “133.7”, “5.3%)” for “3.6%)”; format: functional
SH-SY5Y [9] = experiment: Neuroprotective activity in human SH-SY5Y cells assessed as protection against H2O2-induced oxidative stress incubated for 1 hr prior to H2O2-challenge measured after 12 hrs by MTT assay; format: functional, cell-based
Rattus norvegicus [10] = experiment: Neuroprotective activity in Sprague-Dawley rat assessed as enhancement of high frequency stimulation-induced long-term potentiation in hippocampus at 50 uM, icv after 3 hrs (reference value: 126 +/- 3.6%); format: functional
Hippocampus [11] = experiment: as §1, with “134.3” for “133.7”, “3.9%)” for “3.6%)”; format: functional
[12] = target: Acetylcholinesterase (Electrophorus electricus) (UniProt O42275); experiment: Mixed type inhibition of electric eel acetylcholine esterase using […] as substrate by Lineweaver-Burk reciprocal plot analysis
[13] = target: Acetylcholinesterase (Electrophorus electricus) (UniProt O42275); experiment: Time dependent inhibition of electric eel acetylcholine esterase using […] as substrate incubated for 5 mins prior to substrate addition measured for 2 to 40 mins by Ellman's assay

Acetylcholinesterase, sequence (O42275 whole entry): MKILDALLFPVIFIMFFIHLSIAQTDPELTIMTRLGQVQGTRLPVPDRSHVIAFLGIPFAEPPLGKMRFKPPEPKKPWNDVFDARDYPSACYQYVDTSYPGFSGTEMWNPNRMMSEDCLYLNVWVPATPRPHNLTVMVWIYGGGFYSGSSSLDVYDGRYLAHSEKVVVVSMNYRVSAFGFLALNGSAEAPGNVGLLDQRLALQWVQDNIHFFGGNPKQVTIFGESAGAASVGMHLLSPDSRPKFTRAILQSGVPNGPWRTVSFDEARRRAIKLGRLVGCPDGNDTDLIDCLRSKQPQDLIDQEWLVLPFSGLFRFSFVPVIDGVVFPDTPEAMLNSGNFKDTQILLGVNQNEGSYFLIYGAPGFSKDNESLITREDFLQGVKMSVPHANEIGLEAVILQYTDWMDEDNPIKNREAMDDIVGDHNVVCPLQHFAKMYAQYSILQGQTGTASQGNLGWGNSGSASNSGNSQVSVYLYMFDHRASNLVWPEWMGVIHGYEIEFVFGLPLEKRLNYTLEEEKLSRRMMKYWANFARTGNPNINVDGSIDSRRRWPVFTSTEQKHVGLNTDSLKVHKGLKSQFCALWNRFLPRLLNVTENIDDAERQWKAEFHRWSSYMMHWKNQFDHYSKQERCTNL
Cholinesterase, sequence (P81908 whole entry): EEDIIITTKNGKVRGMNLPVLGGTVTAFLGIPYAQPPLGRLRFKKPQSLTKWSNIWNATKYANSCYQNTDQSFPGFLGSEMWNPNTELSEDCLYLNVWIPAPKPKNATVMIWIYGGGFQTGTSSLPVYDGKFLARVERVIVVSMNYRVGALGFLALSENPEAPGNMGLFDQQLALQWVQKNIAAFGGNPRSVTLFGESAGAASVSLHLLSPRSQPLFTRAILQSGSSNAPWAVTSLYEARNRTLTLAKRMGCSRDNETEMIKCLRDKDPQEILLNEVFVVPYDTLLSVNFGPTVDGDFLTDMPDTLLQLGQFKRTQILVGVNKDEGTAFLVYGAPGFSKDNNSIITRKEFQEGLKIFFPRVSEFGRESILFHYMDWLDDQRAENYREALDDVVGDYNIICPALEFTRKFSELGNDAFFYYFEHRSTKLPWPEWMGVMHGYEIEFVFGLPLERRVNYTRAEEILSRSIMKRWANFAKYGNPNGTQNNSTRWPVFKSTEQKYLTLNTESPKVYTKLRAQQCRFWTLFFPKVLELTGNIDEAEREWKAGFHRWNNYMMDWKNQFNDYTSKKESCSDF
Acetylcholinesterase (Electrophorus electricus), sequence (O42275 24-633 limits assumed): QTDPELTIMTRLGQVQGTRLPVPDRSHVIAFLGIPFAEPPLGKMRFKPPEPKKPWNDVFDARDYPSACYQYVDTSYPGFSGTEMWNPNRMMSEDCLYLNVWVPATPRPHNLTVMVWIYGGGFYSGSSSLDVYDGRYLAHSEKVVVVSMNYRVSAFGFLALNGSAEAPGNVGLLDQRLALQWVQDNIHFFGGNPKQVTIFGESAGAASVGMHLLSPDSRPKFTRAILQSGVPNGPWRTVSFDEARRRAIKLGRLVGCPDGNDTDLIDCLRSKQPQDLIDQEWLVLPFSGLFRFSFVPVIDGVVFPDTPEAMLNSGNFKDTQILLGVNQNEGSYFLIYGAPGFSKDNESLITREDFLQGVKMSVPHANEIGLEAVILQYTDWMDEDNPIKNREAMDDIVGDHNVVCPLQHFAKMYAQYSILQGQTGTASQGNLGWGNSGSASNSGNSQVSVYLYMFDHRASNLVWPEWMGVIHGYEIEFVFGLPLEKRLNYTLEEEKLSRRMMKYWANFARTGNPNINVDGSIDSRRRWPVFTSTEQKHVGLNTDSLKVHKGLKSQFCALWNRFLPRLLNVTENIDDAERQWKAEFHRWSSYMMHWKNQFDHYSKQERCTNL

Compound	Activity (SH-SY5Y [1])	Activity (SH-SY5Y [2])	IC50 (Acetylcholinesterase)	Activity (SH-SY5Y [3])	IC50 (Cholinesterase)	Activity (Rattus norvegicus [4])	Activity (Rattus norvegicus [5])	Activity (SH-SY5Y [6])	Activity (Hippocampus [7])	Activity (Hippocampus [8])	Activity (SH-SY5Y [9])	Activity (Rattus norvegicus [10])	Activity (Hippocampus [11])	inhibition [12]	inhibition [13]
O=C(CCS)NCCCNc1c2c(nc3ccccc13)CCCC2	34%	16.7%	6030 nM	45.9%	182 nM	Non-toxic	Non-toxic	22%	160.8%						
CC(=O)SCCC(=O)NCCCNc1c2c(nc3ccccc13)CCCC2	50.6%	38.2%	1740 nM	32.4%	229 nM	Non-toxic	Non-toxic	35.9%		136.2%	Dose-dependent effect				
O=C(CCS)NCCCCCCNc1c2c(nc3cc(Cl)ccc13)CCCC2	37.8%	24.5%	178 nM	52.3%	178 nM			27.2%				149%	157.1%		
CC(=O)SCCC(=O)NCCCCNc1c2c(nc3ccccc13)CCCC2	56.5%	43.6%	7240 nM	21.7%	155 nM			30.1%			Dose-dependent effect				
O=C(CCS)NCCCCNc1c2c(nc3ccccc13)CCCC2	38.2%	21.5%	8320 nM	23.8%	129 nM			5.8%							
Cc1c(C)c2c(c(C)c1O)CCC(C)(C(=O)O)O2 (stereo unspecified) [TROLOX]	59.1%	44.2%													
CC(=O)SCCC(=O)NCCCCCCNc1c2c(nc3cc(Cl)ccc13)CCCC2	34%	28.5%	42.7 nM	8.1%	91.2 nM			17.1%			Dose-dependent effect			Active	inactive
